Measured values taken from the supplement of paper PMC11208160.

assay: recombinant barcode read abundance after kanamycin selection (control-corrected) (log10(CPM+1)); higher = more efficient recombination; sequences stand for … in AGTGCAGAGAAAATCGGCCAGTTTTCTCTGCCTGCAGTCCGCATGCCGT…AGATTTATGCAGCGGACTGCCTTTCTCCCAAAGTGATAAACCGGACAGTATCATGGACCGGTTTTCCCGGTAATCCGTATTTGCAAGGTTGGTTTCACT; site = the 11-nt target
Procedure, shortened: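 In E. coli, a pooled library matched targets to IS621 bridge RNA target-binding loops and was introduced alongside a donor plasmid. Cells went onto chloramphenicol/ampicillin/kanamycin with 0.1 mM IPTG or onto chloramphenicol/ampicillin LB agar as control, in duplicate. Recombination efficiency, from recombinant-junction barcodes as counts per million, is averaged and control-corrected. It is reported as log10(CPM+1).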
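Further: IS621 recombinase and bridge RNA in Escherichia coli cells.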

First: GTGTTGCCTTGGGTTCTAACCTGTTGCCT (site GGGTTGCCTAG)
Second: GTGTTGCCTTGGGTTCTAACCTGTTGCCT (site GTGTTGCCTAG)
The “recombinant barcode read abundance (log10)” value of the first is lower: 0.0383 for the first, 0.73 for the second.

Going from “GTTACCTCTTGGGTTCTAACCTGTTGCCT (site CAAGGTCCTCC)” to “GTTACCTCTTGGGTTCTAACCTGTTGCCT (site GTTACCTCTAG)”, the “recombinant barcode read abundance (log10)” value rises from 0.0556 to 0.859.

Compared with “GTTAGCCCTTGGGTTCTAACCTGTTGCAT (site GTTAGCCCTAT)”, “GTTAGCCCTTGGGTTCTAACCTGTTGCAT (site TCACAGACTCG)” is lower in “recombinant barcode read abundance (log10)” value: 0.928 for the first, 0.0525 for the second.

First: GTTAGCCCTTGGGTTCTAACCTGTTGCGG (site GTCAGCCCTCC)
Second: GTTAGCCCTTGGGTTCTAACCTGTTGCGG (site GTTAGCCCTCC)
The “recombinant barcode read abundance (log10)” value of the first is lower: 0.167 for the first, 1.79 for the second.

Compared with “GTTCCTGCTTGGGTTCTAACCTGTTGCCT (site GTTCCTCCTAG)”, “GTTCCTGCTTGGGTTCTAACCTGTTGCCT (site GTTCCTGCTAG)” is higher in “recombinant barcode read abundance (log10)” value: 0.265 for the first, 0.86 for the second.

Going from “GTTCGAGCTTGGGTTCTAACCTGTTGCCT (site GTTAGAGCTAG)” to “GTTCGAGCTTGGGTTCTAACCTGTTGCCT (site GTTCGAGCTAG)”, the “recombinant barcode read abundance (log10)” value rises from 0.276 to 1.61.

“GTTCGAGCTTGGGTTCTAACCTGTTGCCT (site GTTGGAGCTAG)” and “GTTCGAGCTTGGGTTCTAACCTGTTGCCT (site GTTTGAGCTAG)” are within 0.2 log units of each other in “recombinant barcode read abundance (log10)” value: 0.114 for the first, 0.153 for the second.

Going from “GTTCGAGCTTGGGTTCTAACCTGTTGCGG (site ATTCGAGCTCC)” to “GTTCGAGCTTGGGTTCTAACCTGTTGCGG (site GTTCGAGCTCC)”, the “recombinant barcode read abundance (log10)” value rises from 1.74 to 2.49.

First: GTTGACCCTTGGGTTCTAACCTGTTGCCT (site GTAGACCCTCG)
Second: GTTGACCCTTGGGTTCTAACCTGTTGCCT (site GTTGACCCTAG)
The “recombinant barcode read abundance (log10)” value of the first is lower: 0.0195 for the first, 2.2 for the second.

Going from “GTTGGCCCTTGGGTTCTAACCTGTTGCCT (site GATGGCCCTAG)” to “GTTGGCCCTTGGGTTCTAACCTGTTGCCT (site GCTGGCCCTAG)”, the “recombinant barcode read abundance (log10)” value falls from 0.579 to 0.306.

Compared with “GTTGGCCCTTGGGTTCTAACCTGTTGCCT (site GGTGGCCCTAG)”, “GTTGGCCCTTGGGTTCTAACCTGTTGCCT (site GTTGGCCCTAG)” is higher in “recombinant barcode read abundance (log10)” value: 0.152 for the first, 1.94 for the second.

Compared with “GTTGGTCCTTGGGTTCTAACCTGTTGCGT (site GTGAGTCCTAC)”, “GTTGGTCCTTGGGTTCTAACCTGTTGCGT (site GTTGGTCCTAC)” is higher in “recombinant barcode read abundance (log10)” value: 0.136 for the first, 2.76 for the second.

Going from “GTTTAAACTTGGGTTCTAACCTGTTGCCT (site GTTTAAACTAG)” to “GTTTAAACTTGGGTTCTAACCTGTTGCCT (site GTTTACGCTAG)”, the “recombinant barcode read abundance (log10)” value falls from 0.809 to 0.0493.

Going from “GTTTACGCTTGGGTTCTAACCTGTTGCCT (site GTTTAAACTAG)” to “GTTTACGCTTGGGTTCTAACCTGTTGCCT (site GTTTACGCTAG)”, the “recombinant barcode read abundance (log10)” value rises from 0.0797 to 1.96.

“GTTTCTACTTGGGTTCTAACCTGTTGCTA (site ATTTCTACTTC)” and “GTTTCTACTTGGGTTCTAACCTGTTGCTA (site GTTTCTACTTA)” are within 0.2 log units of each other in “recombinant barcode read abundance (log10)” value: 0.128 for the first, 0.0482 for the second.

Compared with “GTTTCTTCTTGGGTTCTAACCTGTTGCCT (site GATTCTTCTAG)”, “GTTTCTTCTTGGGTTCTAACCTGTTGCCT (site GCTTCTTCTAG)” is lower in “recombinant barcode read abundance (log10)” value: 0.304 for the first, 0.0824 for the second.

“GTTTCTTCTTGGGTTCTAACCTGTTGCCT (site GGTTCTTCTAG)” and “GTTTCTTCTTGGGTTCTAACCTGTTGCCT (site GTTTCTTCTAG)” are within 0.2 log units of each other in “recombinant barcode read abundance (log10)” value: 0.171 for the first, 0.0189 for the second.

“GTTTGATCTTGGGTTCTAACCTGTTGCCT (site GTTTGATCTAG)” and “GTTTGATCTTGGGTTCTAACCTGTTGCCT (site GTTTGCTCTAG)” are within 0.2 log units of each other in “recombinant barcode read abundance (log10)” value: 0.172 for the first, 0.029 for the second.

First: GTTTGATCTTGGGTTCTAACCTGTTGCCT (site GTTTGGTCTAG)
Second: GTTTGATCTTGGGTTCTAACCTGTTGCCT (site GTTTGTTCTAG)
The “recombinant barcode read abundance (log10)” value of the first is higher: 0.212 for the first, 0 for the second.

“GTTTGCCCTTGGGTTCTAACCTGTTGCTT (site GTTTGACCTAA)” and “GTTTGCCCTTGGGTTCTAACCTGTTGCTT (site GTTTGCCCTAA)” are within 0.2 log units of each other in “recombinant barcode read abundance (log10)” value: 0.0376 for the first, 0.0681 for the second.

“GTTTGCCCTTGGGTTCTAACCTGTTGCTT (site GTTTGGCCTAA)” and “GTTTGCCCTTGGGTTCTAACCTGTTGCTT (site GTTTGTCCTAA)” are within 0.2 log units of each other in “recombinant barcode read abundance (log10)” value: 0.0442 for the first, 0.164 for the second.

Going from “GTTTGCTCTTGGGTTCTAACCTGTTGCCT (site GTTTGATCTAG)” to “GTTTGCTCTTGGGTTCTAACCTGTTGCCT (site GTTTGCTCTAG)”, the “recombinant barcode read abundance (log10)” value rises from 0.0882 to 0.635.

Going from “GTTTGCTCTTGGGTTCTAACCTGTTGCCT (site GTTTGGTCTAG)” to “GTTTGCTCTTGGGTTCTAACCTGTTGCCT (site GTTTGTTCTAG)”, the “recombinant barcode read abundance (log10)” value falls from 0.416 to 0.115.

“GTTTGTCCTTGGGTTCTAACCTGTTGCTT (site GTTTGACCTAA)” and “GTTTGTCCTTGGGTTCTAACCTGTTGCTT (site GTTTGCCCTAA)” are within 0.2 log units of each other in “recombinant barcode read abundance (log10)” value: 0.178 for the first, 0.0342 for the second.

First: GTTTGTCCTTGGGTTCTAACCTGTTGCTT (site GTTTGGCCTAA)
Second: GTTTGTCCTTGGGTTCTAACCTGTTGCTT (site GTTTGTCCTAA)
The “recombinant barcode read abundance (log10)” value of the first is higher: 0.644 for the first, 0.048 for the second.

“TAAAGGCCTTGGGTTCTAACCTGTTGCTA (site CAAAGGTCTTA)” and “TAAAGGCCTTGGGTTCTAACCTGTTGCTA (site TAAAGGCCTTA)” are within 0.2 log units of each other in “recombinant barcode read abundance (log10)” value: 0.218 for the first, 0.159 for the second.

First: TAAAGGGCTTGGGTTCTAACCTGTTGCCT (site TAAAGGGCTAG)
Second: TAAAGGGCTTGGGTTCTAACCTGTTGCCT (site TAACGGGCTCG)
The “recombinant barcode read abundance (log10)” value of the first is higher: 0.4 for the first, 0.0341 for the second.

Going from “TAAATAGCTTGGGTTCTAACCTGTTGCCT (site TAAATAGCTAG)” to “TAAATAGCTTGGGTTCTAACCTGTTGCCT (site TAATTAGCTAG)”, the “recombinant barcode read abundance (log10)” value falls from 0.881 to 0.243.

Compared with “TAAATCCCTTGGGTTCTAACCTGTTGCGA (site ACGGAATCTCG)”, “TAAATCCCTTGGGTTCTAACCTGTTGCGA (site TAAATCCCTTC)” is higher in “recombinant barcode read abundance (log10)” value: 0.0648 for the first, 1.22 for the second.

First: TAACATACTTGGGTTCTAACCTGTTGCAT (site TAACATACTAT)
Second: TAACATACTTGGGTTCTAACCTGTTGCAT (site TAACCTACTAT)
The “recombinant barcode read abundance (log10)” value of the first is higher: 1.22 for the first, 0.139 for the second.

“TAACATACTTGGGTTCTAACCTGTTGCAT (site TAACGTACTAT)” and “TAACATACTTGGGTTCTAACCTGTTGCAT (site TAACTTACTAT)” are within 0.2 log units of each other in “recombinant barcode read abundance (log10)” value: 0.233 for the first, 0.0391 for the second.

Going from “TAACCATCTTGGGTTCTAACCTGTTGCCT (site TAACCATCTAG)” to “TAACCATCTTGGGTTCTAACCTGTTGCCT (site TACCCATCTAG)”, the “recombinant barcode read abundance (log10)” value falls from 0.266 to 0.0574.

“TAACCATCTTGGGTTCTAACCTGTTGCCT (site TAGCCATCTAG)” and “TAACCATCTTGGGTTCTAACCTGTTGCCT (site TATCCATCTAG)” are within 0.2 log units of each other in “recombinant barcode read abundance (log10)” value: 0.0156 for the first, 0.0811 for the second.

Compared with “TAACCTGCTTGGGTTCTAACCTGTTGCCT (site TAACCTACTAG)”, “TAACCTGCTTGGGTTCTAACCTGTTGCCT (site TAACCTCCTAG)” is lower in “recombinant barcode read abundance (log10)” value: 0.532 for the first, 0.0336 for the second.

Going from “TAACCTGCTTGGGTTCTAACCTGTTGCCT (site TAACCTGCTAG)” to “TAACCTGCTTGGGTTCTAACCTGTTGCCT (site TAACCTTCTAG)”, the “recombinant barcode read abundance (log10)” value falls from 0.889 to 0.624.

“TAACCTTCTTGGGTTCTAACCTGTTGCCT (site TAACCTACTAG)” and “TAACCTTCTTGGGTTCTAACCTGTTGCCT (site TAACCTCCTAG)” are within 0.2 log units of each other in “recombinant barcode read abundance (log10)” value: 0 for the first, 0.019 for the second.

Going from “TAACCTTCTTGGGTTCTAACCTGTTGCCT (site TAACCTGCTAG)” to “TAACCTTCTTGGGTTCTAACCTGTTGCCT (site TAACCTTCTAG)”, the “recombinant barcode read abundance (log10)” value rises from 0.00987 to 0.472.

Compared with “TAAGACCCTTGGGTTCTAACCTGTTGCCT (site TAAGACCCTAG)”, “TAAGACCCTTGGGTTCTAACCTGTTGCCT (site TCAGACCCTAG)” is lower in “recombinant barcode read abundance (log10)” value: 2.33 for the first, 0.454 for the second.

Going from “TAAGACGCTTGGGTTCTAACCTGTTGCCT (site TAAGACGCTAG)” to “TAAGACGCTTGGGTTCTAACCTGTTGCCT (site TACGACGCTAG)”, the “recombinant barcode read abundance (log10)” value falls from 2.33 to 0.0565.

First: TAAGACGCTTGGGTTCTAACCTGTTGCCT (site TAGGACGCTAG)
Second: TAAGACGCTTGGGTTCTAACCTGTTGCCT (site TATGACGCTAG)
The “recombinant barcode read abundance (log10)” value of the first is lower: 0.729 for the first, 1.05 for the second.

Going from “TAAGGTCCTTGGGTTCTAACCTGTTGCTT (site AGGTCAACTCG)” to “TAAGGTCCTTGGGTTCTAACCTGTTGCTT (site TAAGGTCCTAA)”, the “recombinant barcode read abundance (log10)” value rises from 0.224 to 1.49.

Going from “TAAGTACCTTGGGTTCTAACCTGTTGCCT (site AAAGTACCTAG)” to “TAAGTACCTTGGGTTCTAACCTGTTGCCT (site CAAGTACCTAG)”, the “recombinant barcode read abundance (log10)” value falls from 1.12 to 0.517.

First: TAAGTACCTTGGGTTCTAACCTGTTGCCT (site GAAGTACCTAG)
Second: TAAGTACCTTGGGTTCTAACCTGTTGCCT (site TAAGTACCTAG)
The “recombinant barcode read abundance (log10)” value of the first is lower: 0.029 for the first, 1.88 for the second.
